Source: patent publication US20260207614A1, “IRAK4 DEGRADERS AND USES THEREOF” (Kymera Therapeutics, Inc., priority 2022, published 2026)

Columns and labels:
[1] = test system: IRAK4; assay: In vitro IRAK4 degradation, monkey PBMCs; assay type: cell-based
[2] = test system: LPS (TLR4)-stimulated cytokine induction in whole blood; assay: Phase 1 SAD ex vivo LPS-stimulated cytokine induction in whole blood; parameters: species or system human; conditions: 24-48 hours, Cohort 7
[3] = biological target: T1, IRAK4 (Rattus norvegicus, UniProt A0A8I6G1H3); assay: In vitro IRAK4 degradation, rat splenocytes; assay type: cell-based; conditions: read-out: DC50 (IRAK4 degradation)
T1 construct: endogenous in cells; host or cells: rat splenocytes

[4] = Phase 1 Part C Compound A skin concentration; assay type: in vivo, human; conditions: FIG. 20, Day 28
[5] = clinical; conditions: human, in vivo
From the text: The safety margin decreases as the dose increases.

[6] = Phase 1 MAD plasma PK in healthy volunteers; assay type: in vivo, human; conditions: for Ctrough / AUC: Day 14, geometric mean (% CV); for AUC: read-out: AUC24; for Tmax: Day 14, median (range); for Cmax: Day 14 steady state, geometric mean (% CV)
Procedure: The selection of Compound A doses will be guided by the safety, tolerability, and PK data in humans from the SAD portion of the study. […] Increasing dose levels in subsequent MAD cohorts will be identified based on the safety and PK observed in the previous SAD and MAD cohorts. Dose escalation between each MAD cohort will not exceed 100%.
However, the dosing interval and the duration of dosing may change following review of the safety, PK, and PD data from Part A.
A MAD5 cohort was added including five twice-weekly doses of 200 mg.
Geometric Mean (% CV) reported for all parameters, except tmax where median (range) are presented. Accumulation Ratio represents fold change in exposure from Day 1 to Day 14.

[7] = test system: patients with atopic dermatitis (AD); assay: Phase 1 Part C clinical efficacy in atopic dermatitis; assay type: in vivo, human
From the text: Baseline Characteristics and Disposition: A total of 21 patients were enrolled in the trial, including 13 HS and 8 AD patients, with median age 31-40 years (13 female, 8 male). Disease severity for HS was moderate (10), severe (1) and very severe (2) and for AD was mild (1), moderate (5) and severe (2). One HS and 1 AD patient withdrew from treatment early due to personal reasons, resulting in 12 HS and 7 AD patients evaluable for PD and clinical efficacy.
AD clinical endpoints collected in the study included EASI score, Peak Pruritus NRS and vIGA-AD. Peak Pruritus NRS was used to derive Peak Pruritus NRS responder rate.

[8] = test system: MSU-crystal induced (TLR 2/4-dependent) inflammation; assay: Mouse air pouch model of MSU-crystal induced inflammation; assay type: in vivo
From the text: Overall, efficacy was associated with achieving at least 80% or more IRAK4 knockdown in associated tissues in the model systems.

[9] = biological target: T2, breast cancer resistance protein (BCRP) (Homo sapiens, UniProt Q9UNQ0); assay: BCRP substrate and efflux inhibition in vitro; assay type: in vitro ADME
T2 sequence (Q9UNQ0 1-655): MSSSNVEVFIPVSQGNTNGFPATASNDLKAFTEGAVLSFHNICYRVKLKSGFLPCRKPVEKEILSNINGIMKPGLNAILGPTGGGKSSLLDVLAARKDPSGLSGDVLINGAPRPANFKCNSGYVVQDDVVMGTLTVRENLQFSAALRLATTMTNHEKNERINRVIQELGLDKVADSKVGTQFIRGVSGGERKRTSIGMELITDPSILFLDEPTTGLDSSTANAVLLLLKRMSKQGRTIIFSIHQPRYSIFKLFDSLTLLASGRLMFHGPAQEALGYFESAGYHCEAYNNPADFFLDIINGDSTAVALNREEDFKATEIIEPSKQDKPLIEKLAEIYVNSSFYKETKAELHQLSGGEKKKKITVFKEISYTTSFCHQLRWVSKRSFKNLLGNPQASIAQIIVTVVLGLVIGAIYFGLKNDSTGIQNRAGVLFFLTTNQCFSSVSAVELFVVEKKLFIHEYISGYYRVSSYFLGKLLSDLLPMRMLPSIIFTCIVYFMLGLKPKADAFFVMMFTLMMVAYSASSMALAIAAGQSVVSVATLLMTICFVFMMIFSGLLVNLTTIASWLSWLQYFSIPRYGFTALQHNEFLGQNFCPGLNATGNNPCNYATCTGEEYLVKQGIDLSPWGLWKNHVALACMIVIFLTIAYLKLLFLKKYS
From the text: In in vivo pharmacokinetic (PK) studies conducted in rats, dogs, and monkeys.
Metabolites generated in liver microsomes from humans were also detected in those from rat, dog, and monkey. In the in vitro drug-drug interaction studies.

[10] = AD, n = 7, 75 mg QD fed, highest response across Days 28 through 42
[11] = AD, n = 7, deepest reduction across Days 28 through 42
[12] = 30 to 100 mg/kg twice daily, 3 days

T1 sequence (A0A8I6G1H3 1-461): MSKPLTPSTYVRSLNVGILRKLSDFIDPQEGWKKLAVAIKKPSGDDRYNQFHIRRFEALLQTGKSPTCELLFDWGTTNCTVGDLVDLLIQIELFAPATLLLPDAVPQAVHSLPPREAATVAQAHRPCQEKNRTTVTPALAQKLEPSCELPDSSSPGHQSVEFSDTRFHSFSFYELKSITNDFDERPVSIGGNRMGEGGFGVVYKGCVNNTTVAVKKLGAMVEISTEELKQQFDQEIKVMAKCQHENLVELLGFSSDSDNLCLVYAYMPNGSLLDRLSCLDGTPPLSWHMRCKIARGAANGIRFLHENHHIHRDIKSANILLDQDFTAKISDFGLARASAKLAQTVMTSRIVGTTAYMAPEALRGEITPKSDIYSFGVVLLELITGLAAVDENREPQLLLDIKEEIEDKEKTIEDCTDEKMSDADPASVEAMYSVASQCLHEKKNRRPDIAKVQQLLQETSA

Cn1c(=O)n([C@@H]2CCC(=O)NC2=O)c2cccc(C#CCOC3CCN(C[C@H]4CC[C@H](n5cc(NC(=O)c6cnn7ccc(N8C[C@H]9C[C@@H]8CO9)nc67)c(C(F)F)n5)CC4)CC3)c21 [Compound A, 5-((1R,4R)-2-oxa-5-azabicyclo[2.2.1]heptan-5-yl)-N-(3-(difluoromethyl)-1-((1r,4R)-4-((4-((3-(1-(2,6-dioxopiperidin-3-yl)-3-methyl-2-oxo-2,3-dihydro-1H-benzo[d]imidazol-4-yl)prop-2-yn-1-yl)oxy)piperidin-1-yl)methyl)cyclohexyl)-1H-pyrazol-4-yl)pyrazolo[1,5-a]pyrimidine-3-carboxamide]
Mean Maximum Percent Change from Baseline in ex vivo IFNγ induction [2]: −42%^
Mean Maximum Percent Change from Baseline in ex vivo IL1β induction [2]: −68%^1
Mean Maximum Percent Change from Baseline in ex vivo IL6 induction [2]: −62%^1
Mean Maximum Percent Change from Baseline in ex vivo IL8 induction [2]: −81%^1
Mean Maximum Percent Change from Baseline in ex vivo IL10 induction [2]: −83%^1
Mean Maximum Percent Change from Baseline in ex vivo IL12 induction [2]: −35%^2
Mean Maximum Percent Change from Baseline in ex vivo IL17 induction [2]: −43%^2
Mean Maximum Percent Change from Baseline in ex vivo TNFα induction [2]: −42%^2
DC50 [3]: < 10 nM
half-life [5]: 25 to 40 h
inter-subject variability in exposure [5]: low to moderate
AUC ([5]; po, 25 mg): 112 ng·h/mL
Cmax ([5]; po, 25 mg): 3.49 ng/mL
Tmax ([5]; po, 25 mg): 8 h
half-life ([5]; po, 25 mg): 25.2 h
AUC ([5]; po, 75 mg): 288 ng·h/mL
Cmax ([5]; po, 75 mg): 9.08 ng/mL
Tmax ([5]; po, 75 mg): 7 h
half-life ([5]; po, 75 mg): 28.7 h
AUC ([5]; po, 150 mg): 483 ng·h/mL
Cmax ([5]; po, 150 mg): 12.7 ng/mL
Tmax ([5]; po, 150 mg): 9 h
half-life ([5]; po, 150 mg): 31.6 h
AUC ([5]; po, 300 mg): 848 ng·h/mL
Cmax ([5]; po, 300 mg): 17.4 ng/mL
Tmax ([5]; po, 300 mg): 8 h
half-life ([5]; po, 300 mg): 26.6 h
AUC ([5]; po, 600 mg): 1520 ng·h/mL
Cmax ([5]; po, 600 mg): 24.2 ng/mL
Tmax ([5]; po, 600 mg): 12 h
half-life ([5]; po, 600 mg): 30.1 h
AUC ([5]; po, 1000 mg): 1950 ng·h/mL
Cmax ([5]; po, 1000 mg): 27.8 ng/mL
Tmax ([5]; po, 1000 mg): 20 h
half-life ([5]; po, 1000 mg): 40.2 h
AUC ([5]; po, 1600 mg): 1920 ng·h/mL
Cmax ([5]; po, 1600 mg): 27.3 ng/mL
Tmax ([5]; po, 1600 mg): 24 h
half-life ([5]; po, 1600 mg): 36.4 h
Ctrough ([6]; 25 mg QD): 5.03 (30.3) ng/mL
Ctrough ([6]; 50 mg QD): 7.28 (35.1) ng/mL
Ctrough ([6]; 100 mg QD): 9.81 (30.1) ng/mL
Ctrough ([6]; 200 mg QD): 18.8 (32.6) ng/mL
day of dosing by which steady-state plasma levels reached ([6]; MAD, once daily): ≤ 7 days
AUC ([6]; human, plasma, oral, 25 mg QD): 153 ng·h/mL
Tmax ([6]; human, plasma, oral, 25 mg QD): 8 h
Cmax ([6]; human, plasma, oral, 25 mg QD): 8.2 ng/mL
AUC ([6]; human, plasma, oral, 50 mg QD): 224 ng·h/mL
Tmax ([6]; human, plasma, oral, 50 mg QD): 8 h
Cmax ([6]; human, plasma, oral, 50 mg QD): 12 ng/mL
AUC ([6]; human, plasma, oral, 100 mg QD): 314 ng·h/mL
Tmax ([6]; human, plasma, oral, 100 mg QD): 8 h
Cmax ([6]; human, plasma, oral, 100 mg QD): 16.1 ng/mL
AUC ([6]; human, plasma, oral, 200 mg QD): 498 ng·h/mL
Tmax ([6]; human, plasma, oral, 200 mg QD): 8 h
Cmax ([6]; human, plasma, oral, 200 mg QD): 25.2 ng/mL
half-life ([6]; human, plasma, oral, healthy volunteers, read-out: half-life, range observed in MAD): 34 to 59 h
EASI score reduction ([7]; AD patients, FIG. 26): up to 37%
Peak Pruritus NRS reduction ([7]; AD patients, FIG. 27): 52-63%
Peak pruritus NRS Responder rate ([7]; AD patients, FIG. 27): 57-71%
Responders: Peak Pruritis NRS, Past 24 Hours [7, 10]: 71%
Responders: Peak Pruritis NRS, Past Week [7, 10]: 57%
ΔEASI [7, 11]: −37%
ΔPeak Pruritis NRS, Past 24 Hours [7, 11]: −63%
ΔPeak Pruritis NRS, Past Week [7, 11]: −52%
disease severity in patient AD-3 ([7]; FIG. 29): from severe to mild
vIGA-AD (IGA scores) ([7]; all AD patients): stable or improved (2 of 7)
IRAK4 levels in the spleen [8, 12]: significantly reduced
inflammatory exudate, including neutrophils and IL-1β [8, 12]: significantly reduced
IRAK4 knockdown in associated tissues associated with efficacy ([8]; murine inflammation model systems overall): at least 80%
inhibition of BCRP efflux [9]: inhibited BCRP efflux
substrate of breast cancer resistance protein (BCRP) [9]: substrate
